Data on nine compounds can be found in ChEMBL document CHEMBL1201862, “PubChem BioAssay data set” (2004).

Some test systems named below: SF-268; PC-3; 786-0; Hs-578T; HOP-62; BT-549; HOP-92; HCC 2998; TK-10; NCI/ADR-RES; SF-295; CAKI-1; SNB-19; UACC-62; T47D; SN12C; ACHN; SK-MEL-5; RPMI-8226; MDA-MB-435.
Holding throughout (assay): NCI tumour cell line growth inhibition, 48 h

Values joined by “and” are separate entries in the source; they are usually repeats but may differ in a detail not shown here. Equal entries are not always repeated.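 These data come from cells grown in 96-well plates and exposed to compound for 48 hours at five concentrations. GI50: concentration for 50% inhibition of growth.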 Active and inactive are the calls of the source. Cut-off read from the data, not from the text of the source: active = GI50 up to about 1.1 µM and inactive = higher.

For `N#CCN1c2ccccc2CCC1Cl` (centres undefined), the GI50 with SF-268, with PC-3, with 786-0, in the experiment with Hs-578T, in the experiment with HOP-62 and in the experiment on BT-549 was > 10 µM (inactive) each time. Moreover, the GI50 in the experiment on HOP-92, in the experiment on HCC 2998, with TK-10, in the experiment on NCI/ADR-RES, in the experiment with SF-295 and in the experiment on CAKI-1 was > 10 µM (inactive) throughout. The GI50 in the experiment with SNB-19, in the experiment on UACC-62, in the experiment on T47D, in the experiment on SN12C, in the experiment on ACHN and in the experiment on SK-MEL-5 was > 10 µM (inactive) in each case. For the same compound, the GI50 with RPMI-8226 and in the experiment on MDA-MB-435 was > 10 µM (inactive) in each case.
Regarding `Cc1nc(-c2cc3c(ccc4ccccc43)oc2=O)cs1`, the GI50 in the experiment with SF-268 is 35.6 µM (inactive); with PC-3, 70.8 µM (inactive); with 786-0 it was 39.1 µM (inactive); with Hs-578T it was 30.3 µM (inactive); with HOP-62, 35.7 µM (inactive); with BT-549, 23.7 µM (inactive). In addition, the GI50 in the experiment with HOP-92 is 30.2 µM (inactive); with HCC 2998, > 100 µM (inactive); with TK-10, 46.7 µM (inactive); with NCI/ADR-RES it was 48.3 µM (inactive); in the experiment on SF-295, 41.8 µM (inactive); with CAKI-1, > 100 µM (inactive). The GI50 with SNB-19 was 33.2 µM (inactive); in the experiment with UACC-62 it was 26 µM (inactive); with T47D it was > 100 µM (inactive); in the experiment on SN12C, > 100 µM (inactive); in the experiment with ACHN, 63.7 µM (inactive); in the experiment on SK-MEL-5, > 100 µM (inactive). The GI50 in the experiment with RPMI-8226 and in the experiment with MDA-MB-435 was > 100 µM (inactive) each time.
Regarding `O=c1[nH]c2ccc(C(F)(F)F)cc2nc1Cc1ccccc1`, the GI50 in the experiment with SF-268 was 35.2 µM (inactive); in the experiment on PC-3, 26.4 µM (inactive); in the experiment on 786-0, 35.5 µM (inactive); in the experiment with Hs-578T, 22.3 µM (inactive); with HOP-62, 33 µM (inactive); in the experiment with BT-549, 34 µM (inactive). Moreover, the GI50 in the experiment with HOP-92 was 18.7 µM (inactive); in the experiment with HCC 2998, 24.1 µM (inactive); in the experiment on TK-10, > 100 µM (inactive); in the experiment on NCI/ADR-RES it was 18.5 µM (inactive); in the experiment on SF-295, 33.5 µM (inactive); in the experiment with CAKI-1, 49.2 µM (inactive). Further, the GI50 with SNB-19 is 53 µM (inactive); with UACC-62 it was 42.9 µM (inactive); in the experiment on T47D, 40.5 µM (inactive); in the experiment with ACHN, 29.1 µM (inactive); in the experiment on SK-MEL-5 it was 24.7 µM (inactive); in the experiment on RPMI-8226 it was 39.2 µM (inactive). For the same compound, the GI50 in the experiment on MDA-MB-435 was 28.4 µM (inactive).
As for `COc1cc(S(=O)(=O)Nc2ccc(-c3csc(N4C(=O)C(Cl)C4c4cccc(Oc5ccccc5)c4)n3)cc2)ccc1Cl` (centres undefined), the GI50 in the experiment on SF-268 is 15 µM (inactive); in the experiment on PC-3, 17.1 µM (inactive); in the experiment on 786-0, 13.7 µM (inactive); in the experiment with Hs-578T it was > 100 µM (inactive); with HOP-62 it was 38.3 µM (inactive); with BT-549, 21.2 µM (inactive). For the same compound, the GI50 was 15.3 µM (inactive) with HOP-92; > 100 µM (inactive) with HCC 2998; > 100 µM (inactive) in the experiment with NCI/ADR-RES; > 100 µM (inactive) in the experiment on SF-295; 20.2 µM (inactive) in the experiment on CAKI-1; > 100 µM (inactive) with SNB-19. Further, the GI50 in the experiment with UACC-62 is 24.5 µM (inactive); with T47D, 24.4 µM (inactive); in the experiment on SN12C it was 15.5 µM (inactive); with ACHN, 24 µM (inactive); in the experiment on SK-MEL-5, 29.1 µM (inactive); in the experiment on RPMI-8226, 19.7 µM (inactive). For the same compound, in the experiment with MDA-MB-435, the GI50 is 20.3 µM (inactive).
Consider `O=C1C(Cl)C2(CC(/C=C/c3ccccc3)=NN2c2cccc(S(=O)(=O)O)c2)N1c1nc2ccccc2s1` (centres undefined), for which the GI50 is 20 µM (inactive) in the experiment with SF-268; 16.1 µM (inactive) in the experiment with PC-3; 17.3 µM (inactive) in the experiment on 786-0; 30.9 µM (inactive) in the experiment with Hs-578T; 14.8 µM (inactive) in the experiment on BT-549; 11.7 µM (inactive) in the experiment on HOP-92. Also, the GI50 with HCC 2998 was 14.4 µM (inactive); in the experiment on TK-10 it was 16.9 µM (inactive); in the experiment with NCI/ADR-RES it was 28.2 µM (inactive); in the experiment with CAKI-1 it was 9.46 µM (inactive); in the experiment with SNB-19 it was 25.2 µM (inactive); in the experiment with UACC-62 it was 14 µM (inactive). In addition, the GI50 with T47D was 11 µM (inactive); with SN12C, 17.2 µM (inactive); with ACHN, 16.6 µM (inactive); in the experiment with SK-MEL-5 it was 15.5 µM (inactive); with RPMI-8226, 13.8 µM (inactive); in the experiment with MDA-MB-435 it was 21.4 µM (inactive).
With `CCOC(=O)C1(O)C(=O)C2=C3C(=O)OC(C4OC(=O)c5c(c(O)c(O)c(O)c5C31)-c1c(cc(O)c(O)c1O)C(=O)OC1COC(=O)c3cc(O)c(O)c(O)c3-c3c(cc(O)c(O)c3O)C(=O)OC14)[C@@H]2O` (some centres undefined), the GI50 with SF-268 is 22.4 µM (inactive); in the experiment with PC-3 it was 46 µM (inactive); in the experiment on 786-0 it was 19.2 µM (inactive); in the experiment on Hs-578T, 30.8 µM (inactive); in the experiment with HOP-62 it was 36.5 µM (inactive); with BT-549 it was 18.8 µM (inactive). Moreover, the GI50 in the experiment with HOP-92 was 23 µM (inactive); in the experiment on HCC 2998, 25.7 µM (inactive); with NCI/ADR-RES, 27.6 µM (inactive); in the experiment on SF-295, 19.1 µM (inactive); with CAKI-1 it was 13 µM (inactive); with SNB-19 it was > 100 µM (inactive). Besides, the GI50 in the experiment on UACC-62 is 20 µM (inactive); in the experiment with T47D, 24.8 µM (inactive); in the experiment on SN12C, 17 µM (inactive); in the experiment with ACHN it was 17.8 µM (inactive); in the experiment on SK-MEL-5, 14.3 µM (inactive); in the experiment with RPMI-8226, 28.5 µM (inactive). Also, the GI50 with MDA-MB-435 was 13 µM (inactive).
Take `COC(=O)/N=[N+](\[O-])C(c1ccc(OC)cc1)C1CCCCC1` (centres undefined): the GI50 was 4.23 µM (inactive) with SF-268; 1.69 µM (inactive) in the experiment with PC-3; 3.82 µM (inactive) in the experiment on 786-0; 6.3 µM (inactive) in the experiment on Hs-578T; 4.84 µM (inactive) with HOP-62; 8.39 µM (inactive) in the experiment with BT-549. Further, the GI50 in the experiment with HOP-92 was 5.85 µM (inactive); in the experiment on HCC 2998, 2.12 µM (inactive); in the experiment on TK-10 it was 3.58 µM (inactive); in the experiment with NCI/ADR-RES it was 2.11 µM (inactive); with SF-295 it was 1.82 µM (inactive); in the experiment with CAKI-1, 2.12 µM (inactive). The GI50 is 9.53 µM (inactive) with SNB-19; 6.03 µM (inactive) with UACC-62; 0.303 µM (active) in the experiment with T47D; 1.8 µM (inactive) with SN12C; 2.56 µM (inactive) in the experiment with ACHN; 2.08 µM (inactive) in the experiment with SK-MEL-5. Besides, the GI50 is 0.948 µM (active) in the experiment on RPMI-8226 and 5.01 µM (inactive) in the experiment with MDA-MB-435.
`CC(CCOc1ccc2ccc(=O)oc2c1)C1=CC(=O)C(C)(C)O1` (centres undefined): the GI50 with SF-268 is 1.71 µM (inactive); in the experiment with PC-3, 4.03 µM (inactive); in the experiment with 786-0, 2.2 µM (inactive); in the experiment on Hs-578T it was 2.38 µM (inactive); with HOP-62, 5.12 µM (inactive); with BT-549, 2.72 µM (inactive). In addition, the GI50 is 3.56 µM (inactive) in the experiment on HOP-92; 2.67 µM (inactive) with HCC 2998; 3.34 µM (inactive) in the experiment with TK-10; 2.12 µM (inactive) in the experiment on NCI/ADR-RES; 3.94 µM (inactive) with SF-295; 2.86 µM (inactive) in the experiment with CAKI-1. For the same compound, the GI50 with SNB-19 is 3.09 µM (inactive); in the experiment on UACC-62, 3.72 µM (inactive); in the experiment with T47D it was 2.02 µM (inactive); in the experiment on SN12C it was 1.67 µM (inactive); with ACHN, 3.18 µM (inactive); in the experiment on SK-MEL-5, 5.13 µM (inactive). In addition, the figures for the GI50 with RPMI-8226 and in the experiment with MDA-MB-435 were 1.95 µM (inactive) and 2.56 µM (inactive), respectively.
For `CC1OC(OC2C(OC(=O)[C@]34CCC(C)(C)C[C@H]3C3=CC[C@@H]5[C@@]6(C)CC[C@H](OC7OC(CO)C(O)C(O)C7OC7OC(CO)C(O)C(O)C7O)C(C)(C)[C@@H]6CC[C@@]5(C)[C@]3(C)CC4)OCC(O)C2O)C(O)C(O)C1OC1OCC(O)C(OC2OCC(O)C(O)C2O)C1O` (some centres undefined), the GI50 in the experiment on SF-268 is 6.03 µM (inactive) and 5.07 µM (inactive); in the experiment on PC-3, 6.62 µM (inactive) and 5.32 µM (inactive); in the experiment with 786-0 it was 6.67 µM (inactive) and 5.46 µM (inactive); in the experiment on Hs-578T it was 13.5 µM (inactive) and 12.9 µM (inactive); with BT-549, 3.51 µM (inactive) and 3.82 µM (inactive); in the experiment with HOP-92, 1.92 µM (inactive) and 2.15 µM (inactive). The GI50 in the experiment with HCC 2998 was 2 µM (inactive) and 1.76 µM (inactive); in the experiment with TK-10 it was 8.41 µM (inactive) and 8.63 µM (inactive); in the experiment with NCI/ADR-RES it was 5.81 µM (inactive) and 3.99 µM (inactive); in the experiment on SF-295 it was 3.44 µM (inactive) and 3.78 µM (inactive); in the experiment with CAKI-1, 3.6 µM (inactive) and 4 µM (inactive); with SNB-19, 7.89 µM (inactive) and 7.41 µM (inactive). In addition, the GI50 was 2.21 µM (inactive) and 2.5 µM (inactive) with UACC-62; 4.13 µM (inactive) and 6.3 µM (inactive) in the experiment with T47D; 2.15 µM (inactive) in the experiment on SN12C; 5.98 µM (inactive) and 4.8 µM (inactive) with ACHN; 2.82 µM (inactive) and 3.24 µM (inactive) in the experiment on SK-MEL-5; 3.98 µM (inactive) and 4.43 µM (inactive) with RPMI-8226. Further, in the experiment on MDA-MB-435, the GI50 is 1.67 µM (inactive) and 1.94 µM (inactive).
